# In the supplement of paper PMC10307832:
# Tests used:
# Experiment in all cases: relative viability (nuclei count vs DMSO), 5 days (fraction); higher = more cells survive
# HOP-62 = test system: HOP-62
# In short: (§1)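 Values are medians from duplicate plates. Each reflects relative viability, defined as the nuclei count of treated wells over that of vehicle wells. Lung cancer cell lines in 1536-well plates were pin-tool dosed one day after seeding with one drug alone or with a fixed anchor-drug dose plus five library-drug doses (not always all listed) in √10 steps, then fixed, stained and imaged at 4× after 5 days.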
# NCI-H2170 = test system: NCI-H2170
# In short: as §1
# LXF-289 = test system: LXF-289
# In short: as §1
# EKVX = test system: EKVX
# In short: as §1
# NCI-H1563 = test system: NCI-H1563
# In short: as §1
# NCI-H1666 = test system: NCI-H1666
# In short: as §1
# NCI-H2405 = test system: NCI-H2405
# In short: as §1
# UMC-11 = test system: UMC-11
# In short: as §1
# BEN = test system: BEN
# In short: as §1
# HCC-827 = test system: HCC-827
# In short: as §1
# NCI-H838 = test system: NCI-H838
# In short: as §1
# EPLC-272H = test system: EPLC-272H
# In short: as §1
# LU99A = test system: LU99A
# In short: as §1
# ABC-1 = test system: ABC-1
# In short: as §1
# NCI-H3122 = test system: NCI-H3122
# In short: as §1
# NCI-H727 = test system: NCI-H727
# In short: as §1
# NCI-H23 = test system: NCI-H23
# In short: as §1
# SK-MES-1 = test system: SK-MES-1
# In short: as §1
# NCI-H358 = test system: NCI-H358
# In short: as §1
# NCI-H1975 = test system: NCI-H1975
# In short: as §1
# NCI-H520 = test system: NCI-H520
# In short: as §1
# NCI-H322M = test system: NCI-H322M
# In short: as §1
smiles,measurement,setting,value
COCC1(CO)C(=O)C2CCN1CC2 (stereo not drawn) [PRIMA-1MET] + COc1cc2c(Oc3ccc(NC(=O)C4(C(=O)Nc5ccc(F)cc5)CC4)cc3F)ccnc2cc1OCCCN1CCOCC1 [Foretinib] (partner 0.25 µM),relative viability,HOP-62; first compound 0.2 µM,1.18
same,relative viability,HOP-62; first compound 0.6325 µM,1.07
same,relative viability,HOP-62; first compound 2 µM,0.931
same,relative viability,HOP-62; first compound 6.325 µM,1.1
same,relative viability,HOP-62; first compound 20 µM,0.799
same,relative viability,NCI-H2170; first compound 0.2 µM,1.04
same,relative viability,NCI-H2170; first compound 0.6325 µM,0.921
same,relative viability,NCI-H2170; first compound 2 µM,0.945
same,relative viability,NCI-H2170; first compound 6.325 µM,1.01
same,relative viability,NCI-H2170; first compound 20 µM,0.94
same,relative viability,LXF-289; first compound 0.2 µM,1.05
same,relative viability,LXF-289; first compound 0.6325 µM,0.95
same,relative viability,LXF-289; first compound 2 µM,0.993
same,relative viability,LXF-289; first compound 6.325 µM,1.02
same,relative viability,LXF-289; first compound 20 µM,0.949
same,relative viability,EKVX; first compound 0.2 µM,0.988
same,relative viability,EKVX; first compound 0.6325 µM,0.518
same,relative viability,EKVX; first compound 6.325 µM,1.1
same,relative viability,EKVX; first compound 20 µM,0.843
same,relative viability,NCI-H1563; first compound 0.2 µM,1.05
same,relative viability,NCI-H1563; first compound 0.6325 µM,1
same,relative viability,NCI-H1563; first compound 2 µM,0.838
same,relative viability,NCI-H1563; first compound 6.325 µM,0.911
same,relative viability,NCI-H1563; first compound 20 µM,0.288
same,relative viability,NCI-H1666; first compound 0.2 µM,0.959
same,relative viability,NCI-H1666; first compound 0.6325 µM,0.906
same,relative viability,NCI-H1666; first compound 2 µM,0.942
same,relative viability,NCI-H1666; first compound 6.325 µM,0.952
same,relative viability,NCI-H1666; first compound 20 µM,0.908
same,relative viability,NCI-H2405; first compound 0.2 µM,1.03
same,relative viability,NCI-H2405; first compound 0.6325 µM,1.03
same,relative viability,NCI-H2405; first compound 6.325 µM,1.03
same,relative viability,NCI-H2405; first compound 20 µM,0.506
same,relative viability,UMC-11; first compound 0.2 µM,1.15
same,relative viability,UMC-11; first compound 0.6325 µM,0.916
same,relative viability,UMC-11; first compound 2 µM,0.963
same,relative viability,UMC-11; first compound 6.325 µM,0.979
same,relative viability,UMC-11; first compound 20 µM,1.02
same,relative viability,BEN; first compound 0.2 µM,0.653
same,relative viability,BEN; first compound 0.6325 µM,0.586
same,relative viability,BEN; first compound 6.325 µM,0.741
same,relative viability,BEN; first compound 20 µM,0.954
same,relative viability,HCC-827; first compound 0.2 µM,1.09
same,relative viability,HCC-827; first compound 0.6325 µM,0.976
same,relative viability,HCC-827; first compound 2 µM,0.749
same,relative viability,HCC-827; first compound 6.325 µM,1.01
same,relative viability,HCC-827; first compound 20 µM,0.929
same,relative viability,NCI-H838; first compound 0.2 µM,1.23
same,relative viability,NCI-H838; first compound 0.6325 µM,0.822
same,relative viability,NCI-H838; first compound 2 µM,1.02
same,relative viability,NCI-H838; first compound 6.325 µM,1.07
same,relative viability,NCI-H838; first compound 20 µM,0.683
same,relative viability,EPLC-272H; first compound 2 µM,0.603
same,relative viability,EPLC-272H; first compound 6.325 µM,0.896
same,relative viability,EPLC-272H; first compound 20 µM,0.105
same,relative viability,LU99A; first compound 0.2 µM,0.84
same,relative viability,LU99A; first compound 0.6325 µM,0.806
same,relative viability,LU99A; first compound 2 µM,0.813
same,relative viability,LU99A; first compound 6.325 µM,0.913
same,relative viability,LU99A; first compound 20 µM,0.394
same,relative viability,ABC-1; first compound 0.2 µM,1.19
same,relative viability,ABC-1; first compound 0.6325 µM,0.937
same,relative viability,ABC-1; first compound 2 µM,1.25
same,relative viability,ABC-1; first compound 6.325 µM,1.03
same,relative viability,ABC-1; first compound 20 µM,0.505
same,relative viability,NCI-H3122; first compound 0.2 µM,0.739
same,relative viability,NCI-H3122; first compound 0.6325 µM,0.762
same,relative viability,NCI-H3122; first compound 2 µM,0.963
same,relative viability,NCI-H3122; first compound 6.325 µM,0.984
same,relative viability,NCI-H3122; first compound 20 µM,0.882
same,relative viability,NCI-H727; first compound 0.2 µM,0.636
same,relative viability,NCI-H727; first compound 0.6325 µM,0.674
same,relative viability,NCI-H727; first compound 2 µM,0.782
same,relative viability,NCI-H727; first compound 6.325 µM,1.03
same,relative viability,NCI-H727; first compound 20 µM,0.44
same,relative viability,NCI-H23; first compound 0.2 µM,1.09
same,relative viability,NCI-H23; first compound 0.6325 µM,1
same,relative viability,NCI-H23; first compound 2 µM,0.861
same,relative viability,NCI-H23; first compound 6.325 µM,0.966
same,relative viability,NCI-H23; first compound 20 µM,0.257
same,relative viability,SK-MES-1; first compound 0.2 µM,1.11
same,relative viability,SK-MES-1; first compound 0.6325 µM,0.941
same,relative viability,SK-MES-1; first compound 2 µM,0.795
same,relative viability,SK-MES-1; first compound 6.325 µM,1.15
same,relative viability,SK-MES-1; first compound 20 µM,0.955
same,relative viability,NCI-H358; first compound 0.2 µM,0.881
same,relative viability,NCI-H358; first compound 2 µM,0.592
same,relative viability,NCI-H358; first compound 6.325 µM,0.634
same,relative viability,NCI-H358; first compound 20 µM,0.0429
same,relative viability,NCI-H1975; first compound 0.2 µM,1.07
same,relative viability,NCI-H1975; first compound 0.6325 µM,0.958
same,relative viability,NCI-H1975; first compound 2 µM,0.916
same,relative viability,NCI-H1975; first compound 6.325 µM,1.01
same,relative viability,NCI-H1975; first compound 20 µM,0.626
same,relative viability,NCI-H520; first compound 0.2 µM,0.794
same,relative viability,NCI-H520; first compound 0.6325 µM,0.62
same,relative viability,NCI-H520; first compound 2 µM,0.669
same,relative viability,NCI-H520; first compound 6.325 µM,0.715
same,relative viability,NCI-H520; first compound 20 µM,0.0989
same,relative viability,NCI-H322M; first compound 0.2 µM,1.14
same,relative viability,NCI-H322M; first compound 0.6325 µM,0.911
same,relative viability,NCI-H322M; first compound 6.325 µM,1.18
same,relative viability,NCI-H322M; first compound 20 µM,0.931
